Entries after “also recorded” stand apart in the source; their conditions may differ. Read-outs that look alike come from different tables or passages of the source.
Assays:
strains of Cryptococcus = conditions: found by researchers at Merck; cited from earlier work
[1] = system: colon adenocarcinoma #51 (Colon 51); experiment: In vivo activity, SC Colon 51 tumor; conditions: Exp 1636, 7 IV inj., 28.1 mg/kg total dose
Human Sm Cell L. DMS273 = experiment: In vivo activity, SC DMS273 tumor; conditions: Exp 1596; SC Human Sm Cell L. DMS273 SCID; 6 IV inj.; 7.3 mg/kg total dose
Description: (§1) Gross log kill is defmed as T-C/3.2 Td where T is the median time in days for the tumors of the treated group to reach 750 mg, C is the median time in days for the tumors of the control group to reach 750 mg, and Td is the tumor volume doubling time. […] An activity rating of +++ to ++++, which is indicative of clinical activity, is needed to effect partial or complete regression of 100-300 mg size masses of most transplanted solid tumors of mice.

[2] = system: Mam 16/Taxol (taxol-resistant mammary #16/C/RP); experiment: In vivo activity, SC Mam 16/Taxol tumor; conditions: Exp 1733, 5 IV inj., 16.5 mg/kg total dose
Description: as §1

[3] = system: colon adenocarcinoma #38 (Colon 38, C38); conditions: Exp 1560; SC Colon 38; 8 IV inj.; 10.3 mg/kg total dose
[4] = system: murine and human tumors implanted in mice
Description: as §1

[5] = system: murine leukemia (L1210 or P388), murine solid tumor, human solid tumor and low malignancy fibroblast (LML) cells
LNCaP Human Prostate = experiment: In vivo activity, SC LNCaP tumor; conditions: Exp 1841, 6 IV inj., 6.5 mg/kg total dose
Description: Gross log kill is defmed as T-C/3.2 Td where T is the median time in days for the tumors of the treated group to reach 750 mg, C is the median time in days for the tumors of the control group to reach 750 mg, and Td is the tumor volume doubling time.

[6] = system: KB (human nasopharyngeal carcinoma); experiment: Cytotoxicity against KB cell line; type: cell-based
[7] = system: LoVo (human colon carcinoma); experiment: Cytotoxicity against LoVo cell line; type: cell-based
MX-1 Human Breast = experiment: In vivo activity, SC MX-1 tumor; conditions: Exp 1806; SC MX-1 Human Breast; 8 IV inj.; 12 mg/kg total dose
Description: as §1

H125 Human Adenosq-lung = conditions: Exp 1823; SC H125 Human Adenosq-lung; 8 IV inj.; 14.4 mg/kg total dose
Description: as §1

M17/0 (Adr. Sens.) = experiment: In vivo activity, SC M17/0 tumor; conditions: Exp 1833; SC M17/0 (Adr. Sens.); 5 IV inj.; 5.4 mg/kg total dose
Description: as §1

[8] = system: Mam 16/C (taxol-sensitive mammary #16/C); experiment: In vivo activity, SC Mam 16/C tumor; conditions: Exp 1720, 5 IV inj., 13.2 mg/kg total dose
[9] = system: SKOV3 (human ovarian carcinoma); experiment: Cytotoxicity against SKOV3 cell line (Table 2); type: cell-based
[10] = system: A-10 rat aortic smooth muscle cells; type: cell-based
Description: A-10 cells were grown to near-confluency on glass coverslips in BME/10% FBS. Compounds in PBS were added to the indicated final concentrations and cells were incubated for an additional 24 hours. For the staining of microtubules and intermediate filaments, the cells were fixed with cold methanol and incubated with PBS containing 10% calf serum to block nonspecific binding sites. Cells were then incubated at 37° C. for 60 min with either monoclonal anti-β-tubulin or with monoclonal anti-vimentin at dilutions recommended by the manufacturer. Bound primary antibodies were subsequently visualized by a 45-minute incubation with fluorescein-conjugated rabbit antimouse IgG. The coverslips were mounted on microscope slides and the fluorescence patterns were examined and photographed using a Zeiss Photomicroscope Ill equipped with epifluorescence optics for fluorescein. […] PBS containing 100 nM TRITC-phalloidin was then added and the mixture was allowed to incubate for 45 min at 37° C. The cells were washed rapidly three times with PBS before the coverslips were mounted and immediately photographed as described above.
After 24 hours, microtubules and vimentin intermediate filaments were visualized by indirect immunofluorescence and microfilaments were stained using TRITC-phalloidin. The morphological effects of each drug were examined. […] Vimentin intermediate filaments were also evenly distributed throughout the cytoplasm, while bundles of microfilaments were concentrated along the major axis of the cell.

[11] = system: tumor (leukemia) and normal cell (CFUGM) lines; experiment: Valeriote assay; type: cell-based; conditions: 5 μg/disk
Description: ^b N = nonselective towards tumor (leukemia) and normal cell (CFUGM)
LL = lymphocytic leukemia selective (ZL1210 - ZCFUM ≥ 25
ML = acute myelogenous leukemia (AML) selective (ZAML - ZCFUGM

[12] = system: Human ovarian carcinoma cells (SKOV3); experiment: SKOV3 cell proliferation (SRB staining, Example 10); type: cell-based; conditions: SKOV3 treated 24 hours with IC50 dose, then drug-free medium
[13] = 24 hours, 2 μM cytochalasin B, 100 nM vinblastine or 10 nM cryptophycin compounds

COc1ccc(C[C@H]2NC(=O)/C=C/C[C@@H]([C@H](C)[C@H]3O[C@@H]3c3ccccc3)OC(=O)[C@H](CC(C)C)OC(=O)[C@H](C)CNC2=O)cc1Cl [Cryptophycin 1]
antifungal activity (strains of Cryptococcus): very active against strains of Cryptococcus
% Body Wt. Loss at Nadir [1]: -11%
Cures [1]: 0/5
Log Kill [1]: 1.3
T/C [1]: 7%
% Body Wt. Loss at Nadir (Human Sm Cell L. DMS273): 0%
Cures (Human Sm Cell L. DMS273): 0/5
Log Kill (Human Sm Cell L. DMS273): < 1
T/C (Human Sm Cell L. DMS273): 27%
% Body Wt. Loss at Nadir [2]: 0%
Cures [2]: 0/4
Log Kill [2]: 1.8
T/C [2]: 2%
% Body Wt. Loss at Nadir [3]: Gain
Cures [3]: 0/5
Log Kill [3]: 1.5
T/C [3]: 6%
in vivo activity (in words) [4]: active against a broad spectrum of murine and human tumors implanted in mice
cause of lethal toxicity observed during testing ([4]; mice): leucopenia
tumor burden T/C (mean tumor burden in treated animals/mean tumor burden untreated animals) ([4]; text summary over the tumors named in the sentence): less than 10%
Differential in Zone Units, Corbett Assay ([5]; 12.5 μg/disk): > 400 zone units
Type of Cytotoxicity, Corbett Assay ([5]; 12.5 μg/disk): E/T
% Body Wt. Loss at Nadir (LNCaP Human Prostate): -6%
Cures (LNCaP Human Prostate): 0/5
Log Kill (LNCaP Human Prostate): < 1
T/C (LNCaP Human Prostate): 26%
KB IC50 ([6]; Table 1): 0.005 ng/mL
KB IC50 ([6]; Table 2): 0.0025 ng/mL
LoVo IC50 ([7]; Table 1): 0.003 ng/mL
LoVo IC50 ([7]; Table 2): 0.001 ng/mL
% Body Wt. Loss at Nadir (MX-1 Human Breast): -3%
Cures (MX-1 Human Breast): 0/5
Log Kill (MX-1 Human Breast): 2.0
T/C (MX-1 Human Breast): 3%
% Body Wt. Loss at Nadir (H125 Human Adenosq-lung): -15%
Cures (H125 Human Adenosq-lung): 0/5
Log Kill (H125 Human Adenosq-lung): 1.1
T/C (H125 Human Adenosq-lung): 9%
dead (animals) (H125 Human Adenosq-lung): 1/5
% Body Wt. Loss at Nadir (M17/0 (Adr. Sens.)): -10%
Cures (M17/0 (Adr. Sens.)): 0/5
Log Kill (M17/0 (Adr. Sens.)): < 1
T/C (M17/0 (Adr. Sens.)): 23%
% Body Wt. Loss at Nadir [8]: -1%
Cures [8]: 0/5
Log Kill [8]: 1.4
T/C [8]: 5%
SKOV3 IC50 [9]: 0.026 ng/mL

C=C1[C@@H](C)[C@H]2[C@H](Cc3ccccc3)NC(=O)[C@]23OC(=O)/C=C/[C@H](O)CCC[C@@H](C)C/C=C/[C@H]3[C@@H]1O [Cytochalasin B, cytochalasin B]
effect on microfilaments ([10]; 2 μM cytochalasin B, 24 hours): complete depolymerization of microfilaments
effect on microtubules [10, 13]: did not affect the distribution of either microtubules or intermediate filaments

COc1cc([C@@H]2c3cc4c(cc3[C@@H](O[C@@H]3O[C@@H]5CO[C@@H](C)O[C@H]5[C@H](O)[C@H]3O)[C@H]3COC(=O)[C@H]23)OCO4)cc(OC)c1O [VP-16, etoposide, reference compound]
Differential in Zone Units, Corbett Assay ([5]; 5 μg/disk): 350 zone units
Differential in Zone Units, Valeriote Assay [11]: 260 zone units

CC(=O)O[C@H]1C(=O)[C@@]2(C)[C@H]([C@H](OC(=O)c3ccccc3)[C@]3(O)C[C@H](OC(=O)[C@H](O)[C@@H](NC(=O)c4ccccc4)c4ccccc4)C(C)=C1C3(C)C)[C@]1(OC(C)=O)CO[C@@H]1C[C@@H]2O [taxol, reference compound]
microtubule organization in taxol-treated cells ([10]; 10 μM taxol): extensively bundled
Differential in Zone Units, Corbett Assay ([5]; 0.2 μg/disk): ≥ 400 zone units
Type of Cytotoxicity, Corbett Assay ([5]; 0.2 μg/disk): M/H/T

CC[C@]1(O)C[C@@H]2CN(CCc3c([nH]c4ccccc34)[C@@](C(=O)OC)(c3cc4c(cc3OC)N(C)[C@H]3[C@@](O)(C(=O)OC)[C@H](OC(C)=O)[C@]5(CC)C=CCN6CC[C@]43[C@@H]65)C2)C1 [vinblastine]
microtubule depolymerization after taxol pretreatment ([10]; 3 hours 10 μM taxol, then 100 nM vinblastine or 10 nM cryptophycin compound, 24 hours): pretreatment with taxol prevented microtubule depolymerization
effect on vimentin intermediate filaments ([10]; 24 hours, 100 nM vinblastine or 10 nM cryptophycin compounds): vimentin intermediate filaments collapsed
effect on microtubules [10, 13]: marked depletion of microtubules; also recorded: complete depolymerization of microtubules
reversibility of microtubule depolymerization after removal of the drug ([10]; 24 hr treatment (100 nM vinblastine or 10 nM cryptophycins), then 1 hour or 24 hours drug-free medium): complete morphological recovery by 24 hour
increase in cell number in the 24 hours following removal of the drug [12]: approximately 3 fold

Source: patent US5952298A, “Cryptophycins” (priority 1995, dated 1999)
